Experimental data reported in PubChem BioAssay (NCI).
Where “and” joins values, the source holds several entries; their conditions need not be identical. Equal values may be shown once.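 In this assay, cells in 96-well plates receive the compound at five concentrations for 48 hours. Endpoints are linearly interpolated between the surrounding concentrations. Abbreviation: GI50, concentration required for 50% inhibition of growth. TGI: total growth inhibition.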

How the values were obtained:
Test in all cases: growth of human tumour cells (NCI), 48 h
SNB-78 CNS = system: SNB-78 CNS
XF 498 CNS = system: XF 498 CNS
DMS 273 small cell lung = system: DMS 273 small cell lung
HOP-18 NSCLC = system: HOP-18 NSCLC
DLD-1 colon = system: DLD-1 colon
LXFL 529 NSCLC = system: LXFL 529 NSCLC
MDA-N = system: MDA-N
DMS 114 small cell lung = system: DMS 114 small cell lung
RXF-631 renal = system: RXF-631 renal

| Compound | TGI (SNB-78 CNS) | TGI (XF 498 CNS) [µM] | TGI (DMS 273 small cell lung) [µM] | TGI (HOP-18 NSCLC) | TGI (DLD-1 colon) [µM] | TGI (LXFL 529 NSCLC) [µM] | TGI (DMS 114 small cell lung) | TGI (RXF-631 renal) | further results |
| --- | --- | --- | --- | --- | --- | --- | --- | --- | --- |
| CCOC(=O)CN(Cn1cncn1)Cn1cncn1 | > 100 µM | 40.9 | 39.8 | > 100 µM | > 100 | > 100 | – | – | – |
| O=[N+]([O-])c1nccn1CC(O)CN1CCCCC1 (stereo not drawn) | – | – | – | – | – | – | – | – | TGI (MDA-N): > 100 µM |
| [O-]c1ccccc1C=Nc1ccc2c(c1)CCC2.[O-]c1ccccc1C=Nc1ccc2c(c1)CCC2.[O]=[U+2]=[O] | > 100 µM | > 100 | > 100 | > 100 µM | > 100 | > 100 | > 100 µM | > 100 µM | GI50 (SNB-78 CNS): > 100 µM; GI50 (XF 498 CNS): > 100 µM; GI50 (DMS 273 small cell lung): 14.2 µM; GI50 (DMS 114 small cell lung): 7.05 µM; GI50 (RXF-631 renal): > 100 µM; GI50 (HOP-18 NSCLC): 8.74 µM; GI50 (DLD-1 colon): 27.8 µM; GI50 (LXFL 529 NSCLC): 28.4 µM |
| COC(=O)C1C(=O)CC2CCCCC21 (stereo not drawn) | > 100 µM | – | > 100 | – | > 100 | > 100 | > 100 µM | – | – |
| O=c1cc(-c2ccc(O)cc2)oc2cc(O[C@@H]3O[C@H](CO)[C@@H](O)[C@H](O)[C@H]3O)cc(O)c12 | – | – | – | – | – | – | – | – | TGI (MDA-N): > 100 µM |
| Cc1ccc(Oc2ccccc2N)cc1 | > 100 µM | > 100 | > 100 | > 100 µM | > 100 | > 100 | > 100 µM | > 100 µM | – |
| CN(C)c1nc(=NCc2ccco2)ss1 | > 100 µM | > 100 | > 34.6 | > 100 µM | 46.1 | > 100 | – | – | TGI (MDA-N): 33.7 µM |
| COc1ccc(OC(C(=O)O)C(C)C)c2c1CCCC2=O (stereo not drawn) | > 100 µM | > 100 | > 100 | > 100 µM | > 100 | > 100 | > 100 µM | > 100 µM | – |
| N#C/C(=C\c1cccc(O)c1O)C(N)=O | > 100 µM | 95.6 | > 100 | – | > 100 | > 100 | > 100 µM | > 100 µM | – |
| O=C(O)/C=C\C(=O)Nc1ccccn1 | – | – | – | – | – | – | – | – | TGI (MDA-N): > 100 µM |
| CNc1ccc2ncccc2c1[N+](=O)[O-] | > 100 µM | > 100 | > 100 | > 100 µM | > 100 | > 100 | > 100 µM | > 100 µM | – |
| COc1ccc(-c2cc(C(=O)Nc3cc(C(F)(F)F)cc(C(F)(F)F)c3)c3ccccc3n2)cc1 | 52.1 µM | 22.5 | 21.1 | 51.8 µM | 43.6 | 20.9 | 21.1 µM | – | – |
| CCc1cccc(C)c1N1C(=O)C(=O)C(c2nc3ccccc3o2)C(=O)C1=O | > 100 µM | > 100 | > 100 | > 100 µM | > 100 | > 100 | – | – | – |
| CC(C)(O)/C=C/C(=O)[C@](C)(O)[C@H]1[C@H](O)C[C@@]2(C)[C@@H]3CC=C4[C@@H](C[C@H](O)C(=O)C4(C)C)[C@]3(C)C(=O)C[C@]12C | 0.92 µM and 1.67 µM | – | 0.543 | 0.41 µM and 0.394 µM | 8.08 | 4.09 | 0.948 µM and 9.41 µM | 0.549 µM and 1.97 µM | GI50 (SNB-78 CNS): 0.203 µM; GI50 (DMS 273 small cell lung): 0.108 µM; GI50 (DMS 114 small cell lung): 0.108 µM; GI50 (RXF-631 renal): 0.116 µM and 0.34 µM; GI50 (HOP-18 NSCLC): 0.0838 µM; GI50 (DLD-1 colon): 0.119 µM; GI50 (LXFL 529 NSCLC): 0.0484 µM |
| CCCn1cnc2c(SCC(=O)O)nc(N)nc21 | – | – | – | – | – | – | – | – | TGI (MDA-N): > 100 µM |
| [O-][N+]1(CC[N+]2([O-])CCCCC2)CCCCC1 | – | – | – | – | – | – | – | – | TGI (MDA-N): > 100 µM |
| C#CCNC(=O)NCCCCC(NC(=O)OCc1ccccc1)C(=O)OCc1ccccc1 (stereo not drawn) | > 100 µM | 40.8 | > 100 | > 100 µM | > 100 | > 100 | > 73.5 µM | > 100 µM | – |
| COC(=O)C1=C(CS(=O)c2ccc([N+](=O)[O-])cc2[N+](=O)[O-])C2C=CC1C2 (stereo not drawn) | > 100 µM | 64.1 | 43 | > 100 µM | 37.6 | 56.9 | 49.5 µM | 32.7 µM | – |

| Compound | TGI (SNB-78 CNS) | TGI (XF 498 CNS) [µM] | TGI (DMS 273 small cell lung) [µM] | TGI (HOP-18 NSCLC) | TGI (DLD-1 colon) [µM] | TGI (LXFL 529 NSCLC) [µM] | TGI (DMS 114 small cell lung) | TGI (RXF-631 renal) | further results |
| --- | --- | --- | --- | --- | --- | --- | --- | --- | --- |
| C[Si](C)(C)C(CCCCSc1ccccc1)(Sc1ccccc1)Sc1ccccc1 | > 100 µM | > 100 | > 100 | – | > 100 | > 100 | > 100 µM | > 100 µM | – |
| C#CCNC(=O)ON1C(=O)CCC1=O | > 100 µM | – | > 100 | > 100 µM | > 100 | > 100 | – | > 100 µM | – |
| O=C1OC(c2ccccc2)=N/C1=C\c1ccc(Oc2ccc(Cl)c(Cl)c2)cc1 | 85.7 µM | – | – | > 100 µM | > 100 | 85.6 | 35.6 µM | – | – |
| Cc1ccc(S(=O)(=O)N=NC=C2c3ccccc3N(O)c3ccccc32)cc1 | 32.8 µM | – | 15.1 | 20.8 µM | 8.46 | 2.41 | 10.8 µM | 10.2 µM | – |
| O=C(C#Cc1ccccc1)N1c2ccccc2CC1c1c[nH]c2ccccc12 (stereo not drawn) | 36.9 µM | – | 30 | – | 76.7 | 27.7 | 28.8 µM | 27.7 µM | – |
| CC[C@@]1(OC(=O)CN)C(=O)OCc2c1cc1n(c2=O)Cc2c-1nc1cc3c(cc1c2CCl)OCO3 | – | – | – | – | – | – | – | – | GI50 (MDA-N): 0.0885 µM; TGI (MDA-N): 0.645 µM |
| Cl/C(N=Nc1ccccc1)=N/Nc1ccccc1 | > 100 µM | > 100 | > 100 | > 100 µM | – | > 100 | – | > 100 µM | – |
| O=c1nc(-c2ccccc2)cc(CC(O)c2ccc(Cl)c(Cl)c2)[nH]1 (stereo not drawn) | – | – | > 100 | > 100 µM | > 100 | > 100 | > 100 µM | – | – |
| O=C(O)c1cc(=O)c2c([nH]c3ccccc32)s1 | > 100 µM | > 100 | – | – | > 100 | > 100 | > 100 µM | > 100 µM | – |
| CC(=O)NC(CCCCN)C(=O)NCc1ccccc1 (stereo not drawn) | – | > 100 | > 100 | – | > 100 | > 100 | > 100 µM | – | – |
| CN(C)/C=N\c1ccnc(=O)[nH]1 | > 100 µM | > 100 | > 100 | > 100 µM | > 100 | > 100 | > 100 µM | > 100 µM | – |
| N/C(=N\NS(=O)(=O)c1ccccc1)Oc1ccc(Br)cc1Br | > 100 µM | > 100 | > 100 | > 100 µM | > 100 | > 100 | > 100 µM | > 100 µM | – |
| Cc1nc2ccc(Br)cc2c(=O)n1-c1ccc(NC2OCC(O)C(O)C2O)cc1 (stereo not drawn) | – | – | – | – | – | – | – | – | GI50 (MDA-N): 43.9 µM and > 100 µM; TGI (MDA-N): > 100 µM |
| CC1=C2C(=CC(C)(C)[C@@H]2O)C(=O)[C@](C)(O)C12CC2 | – | 0.0326 | 0.0189 | 0.0865 µM | 0.0825 | 0.0927 | 0.101 µM | – | GI50 (MDA-N): 0.0126 µM; TGI (MDA-N): 0.0424 µM and 0.0278 µM |
| Cc1cc(NC(=O)C2C3C=CC(O3)C2C(=O)O)no1 (stereo not drawn) | > 100 µM | > 100 | 34.2 | > 100 µM | 49.2 | 46.6 | 29.9 µM | > 100 µM | – |
| CC1(c2cc3c(cc2Br)OCO3)SCCCS1 | > 100 µM | 82.3 | > 100 | – | > 100 | > 100 | > 100 µM | > 100 µM | – |
| Cc1cc(C)nc(/C(=N\NC(N)=O)C(=O)Nc2nc3ccc(C)cc3s2)c1 | > 100 µM | > 100 | > 93.5 | > 100 µM | > 100 | > 100 | > 81.9 µM | – | – |
| CCOc1ccc(/C(C=O)=C(\Cl)c2ccc(OC)cc2)cc1 | > 100 µM | > 100 | > 100 | > 100 µM | > 100 | > 100 | > 100 µM | – | – |
